Results on 11 compounds are retold here after ChEMBL document CHEMBL3627620, “Design, synthesis, and biological evaluation of aminopyrazine derivatives as inhibitors of mitogen-activated protein kinase-activated protein kinase 2 (MK-2)” (Bioorg Med Chem Lett, 2015).

Assay [1] concerns the target MAP kinase-activated protein kinase 2 (Homo sapiens) (UniProt P49137). Put plainly: Inhibition of MK2 (unknown origin) at 50 uM by scintillation proximity assay. For orientation: Scintillation proximity formats need no separation of bound from free tracer.
Assay [2] in a line: Antiinflammatory activity in human THP1 cells assessed as inhibition of LPS-stimulated TNFalpha production. The note with it: THP-1.
Assay [3] is described as follows: Ratio of IC50 for human THP1 cells assessed as inhibition of LPS-stimulated TNFalpha production to IC50 for MK2 (unknown origin). Further details: species or system THP-1.
Assay [4] in a line: Antiinflammatory activity in human THP1 cells assessed as inhibition of LPS-stimulated TNFalpha production at […] uM. The assay is classed as functional. The note with it: THP-1.
The nature of assay [5]: Antiinflammatory activity in human THP1 cells assessed as inhibition of LPS-stimulated TNFalpha production at 50 uM. The assay is classed as functional. To be noted: THP-1.

Structures are written as SMILES.

Sequence of MAP kinase-activated protein kinase 2 (Homo sapiens) (P49137 whole entry, looked up): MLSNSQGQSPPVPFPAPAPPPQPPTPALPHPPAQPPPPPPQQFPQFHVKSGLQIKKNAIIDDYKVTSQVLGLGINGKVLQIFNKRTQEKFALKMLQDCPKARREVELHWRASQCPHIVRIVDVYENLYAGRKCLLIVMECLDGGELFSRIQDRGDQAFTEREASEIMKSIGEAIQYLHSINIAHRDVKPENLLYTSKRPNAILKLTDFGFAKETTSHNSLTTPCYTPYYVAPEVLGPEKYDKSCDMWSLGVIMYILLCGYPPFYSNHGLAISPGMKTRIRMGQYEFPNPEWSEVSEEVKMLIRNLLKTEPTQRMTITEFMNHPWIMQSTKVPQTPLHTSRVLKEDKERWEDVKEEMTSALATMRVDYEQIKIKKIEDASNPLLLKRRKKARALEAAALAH

`Nc1ncc(Cl)nc1-c1nc(N2CCc3ccccc32)no1`: in assay [1], the inhibition was determined as 20%.
On to `CC(C)(C)OC(=O)Nc1ccc(N/C(=N/C#N)NCc2nc(C3CC3)cnc2N)cc1`, for which the IC50 in assay [2] stood at 10.2 µM.
For `Nc1ncc(Cl)nc1CNc1nc2ccccc2s1`, the inhibition in assay [1] came out at 36%.
On to `CCOC(=O)/N=C(\NCc1nc(C2CC2)cnc1N)Nc1ccc2[nH]c(=O)oc2c1`, for which the IC50 in assay [2] was 13 µM.
As for `Nc1ncc(Cl)nc1CNC(=S)Nc1ccccc1`, in assay [3], the “Ratio IC50” value was determined as 4. Moreover, the IC50 in assay [2] is 7.9 µM.
Turning to `Cc1ccc(C(=O)/N=C(\NCc2nc(C3CC3)cnc2N)Nc2ccc3[nH]c(=O)oc3c2)cc1`, the IC50 in assay [2] is 3.9 µM.
On to `CCCc1cnc(N)c(CNC(=O)Nc2ccc3[nH]c(=O)oc3c2)n1`, for which, in assay [2], the IC50 was more than 12.5 µM. The inhibition at 12.5 µM in assay [4] turned out to be 34%.
For the compound `Nc1ncc(C2CC2)nc1CNC(=O)Nc1ccc2[nH]c(=O)oc2c1`, the IC50 in assay [2] is more than 12.5 µM. Further, the inhibition at 12.5 µM in assay [4] worked out at 45%.
As to `Nc1ncc(C2CC2)nc1CN/C(=N\C(=O)c1ccc(Cl)cc1)Nc1ccc2[nH]c(=O)oc2c1`, the concentration for half-maximal inhibition (IC50) in assay [2] came to 8.8 µM.
In the case of `CCCc1cnc(N)c(CN/C(=N\C#N)Nc2ccc3[nH]c(=O)oc3c2)n1`, the IC50 in assay [2] was 42 µM.
On to `CO/N=C(\NCc1nc(Cl)cnc1N)Nc1ccc(NC(=O)OC(C)(C)C)cc1`, for which the IC50 in assay [2] was more than 50 µM. For the same compound, the inhibition at 50 µM in assay [5] worked out at 40%.

The inhibition is the change of the read-out against control, counted positive when it falls. The term IC50 denotes the concentration that gives 50% inhibition.
